Data published in patent US7736856B2, “Method of screening drug with the use of 67 kDa laminin receptor and drug obtained thereby” (Kyushu TLO Company, Limited, priority 2003, dated 2010).

How the values were obtained:
[1] = tested on: 67LR forced expression cells (A549); assay: Cell growth test (cell count, Tripanblue staining) on 67LR transient expression A549 cells; type: cell-based, human; conditions: for number of the cells / growth inhibiting effect (influence of 67LR gene introduction) / survival rate (influence of 67LR gene introduction): 5 μM, 0.5 μg pTARGET-hLamininR in A549 cells; for survival rate (influence of 67LR gene introduction): Tripanblue staining
Method: The 67LR expression vector constructed (pTARGET-hLamininR) was introduced into A549 cells, using FuGENE™ 6 Transfection Reagent. Its details are described below. The cells were inoculated into a 10% FBS-ERDF medium at 1×10^4 cells/ml. By keeping at 37° C. for 24 hours, the cells were adhered to the medium. Next, a fresh ERDF medium was put into a tube, and FuGENE™ 6 (three times the amount of the gene) was directly added and gently mixed. Next, pTARGET-hLamininR was added and gently mixed, and this was kept at room temperature for 30 minutes. This was added to the medium, and kept at 37° C. for 48 hours. The cells were washed with a medium, and then the medium was changed with a fresh one.
(§1) Various components of various concentrations were added to the 67LR transient expression cells, and treated in a 5% FBS-containing ERDF medium at 37° C. for 48 hours. After the treatment, the number of the cells was counted, and the survival rate of the cells was determined according to a Tripanblue staining method.
Using FuGENE™ 6 Transfection Reagent, a 67LR expression vector (pTARGET-hLamininR) was introduced into A549 cells according to the method mentioned below. The cells were inoculated at 1×10^4 cells/ml (10% FBS-ERDF medium). After 24 hours, a fresh ERDF medium was put into a tube, and FuGENE™ 6 (three times the amount of the gene) was directly added and gently mixed. Next, pTARGET-hLamininR of varying concentrations were added and gently mixed, and this was kept at room temperature for 30 minutes. This was added to the medium, and was continuously cultured at 37° C. for 48 hours. EGCG of various concentrations were added to the 67LR transient expression cells, and treated with a 5% FBS-containing ERDF medium at 37° C. for 48 hours. After the treatment, the number of the cells was counted and the survival rate thereof was determined according to a Tripanblue staining method.
First, the influence of the substances on the growth of 67LR forced expression cells was investigated. Similarly to the above, 0.5 μg of pTARGET-hLamininR was introduced into A549 cells by the lipofection method, followed by cultivation at 37° C. for 48 hours. Then, the cells were treated with various tea components each having a final concentration of 5 μM. The cells were further cultivated at 37° C. for 48 hours, and then the number of the cells and the survival rate thereof were determined.

A549 cells = assay: Binding to A549 cells (empty vector / parent) by surface plasmon resonance sensor; parameters: species or system human; conditions: for cell binding to A549 cells: surface plasmon resonance biosensor, 5 μM
Method: (§2) The binding of various component (5 μM) to the cells was determined by using a surface plasmon resonance sensor SPR670 (Nippon Laser and Electronic Lab., Nagoya, Japan). For the measurement, the cells were fixed on a gold membrane (Nippon Laser and Electronic Lab.) according to a standard fixation method for protein. Precisely, a gold membrane was dipped in a solution in ethanol of […] of 4,4-dithiodibutyric acid, DDA (Tokyo Kasei Kogyo Co., Ltd., Tokyo, Japan) (this was prepared by dissolving 2.38 mg of DDA in 10 ml of 99% ethanol followed by diluting it with ethanol to 1/100) in such a manner that its gold surface could face upward, and gently stirred at room temperature for 30 minutes. Next, this was washed twice with ethanol with no pressure applied to the gold surface to thereby introduce a self-assembly membrane (SA membrane). 25 mg of a water-soluble carbodiimide, EDC (Wako Pure Chemicals) was dissolved in 1 ml of ultra-pure water; and 15 mg of N-hydroxysuccinimide, NHS (Wako Pure Chemicals) was dissolved in 9 ml of 1,4-dioxane (Nacalai Tesque, Inc.). These solutions were mixed, and the SA membrane-processed gold membrane was dipped into the mixture, and gently stirred at room temperature for 10 minutes. 10 ml of ultra-pure water was added, and further stirred at room temperature for 5 minutes. This was washed twice with ultra-pure water with no water pressure applied to the gold surface thereof, then dried (in air), and mounted on a cartridge. The cells were suspended to a density of 3×10^5 cells/ml (in a flow buffer, PBS), and 20 μl of the cell suspension was dropwise applied onto the gold membrane and kept at room temperature for 30 minutes so as to fix the cells onto the membrane. Next, a green tea catechin diluted with PBS to have a concentration of 1, 10, 25 or 50 μM was applied thereto, and the change in the surface plasmon resonance angle was determined so as to monitor its binding to the cells.
(§3) 67LR is a membrane protein existing in a cell membrane, and the fact that the EGCG effect was enhanced in the cells with the gene expression vector introduced therein would be due to the increase in the EGCG binding. Accordingly, the EGCG binding to the cells was determined by the sue of a surface plasmon resonance sensor. EGCG was used at 5 μM.

[2] = target: T1, 67LR forced expression cells (A549 with 67LR expression vector) (Homo sapiens, UniProt P08865); assay: Binding to 67LR forced expression cells by surface plasmon resonance sensor; conditions: for change of cell binding in 67LR forced expression cells: surface plasmon resonance biosensor, 5 μM; for angle change (binding amount): EGCG 5 μM
T1 construct: expressed in transfected cells; host or cells: A549 cells, transient transfection with pTARGET-hLamininR (FuGENE 6)
Method: as §2, §3

[3] = target: T2, 67LR forced expression cells (Homo sapiens, UniProt P08865); assay: Growth inhibition by EGCG after anti-67LR antibody pretreatment of 67LR forced expression cells; type: cell-based
T2 construct: expressed in transfected cells; host or cells: A549 cells, transient transfection with pTARGET-hLamininR (FuGENE 6)
Method: as §1
Regarding […] pretreatment, an anti-67LR antibody having a final concentration of 10 μg/ml (1% FBS-containing ERDF medium) was treated at 37° C. for 30 minutes, and then EGCG treatment was carried out so as to investigate the influence thereof on the antibody-treatment cells. As a negative control, the same treatment was carried out with mouse IgM.

67LR on cell surfaces = 67LR on cell surfaces (Homo sapiens, UniProt P08865); assay: Flow cytometry: influence of EGCG treatment on detection of cell surface 67LR by anti-67LR antibody; type: binding
Method: It is known that 67LR is expressed on cell surfaces. Therefore, 67LR expressed on the surfaces of the cells was detected through flow cytometry analysis using an anti-human laminin receptor (LR) antibody. The cells were collected, and using a 1.5-ml Eppendorf tube, they were added to 100 μl, as a whole, of 1% FBS-PBS at 1×10^6 cells therein. A primary antibody, anti-human LR antibody was added to it to have a final concentration of 10 μg/ml. This was incubated at 4° C. for 30 minutes, and then washed once with PBS. Next, a secondary antibody, anti-mouse IgM FITC-labeled antibody capable of recognizing an isotype of LR antibody was added to 25 μl, as a whole, of 1% FBS-PBS so as to have a final concentration of 12.5 μg/ml. This was incubated at 4° C. for 30 minutes, then washed twice with PBS, and re-suspended in PBS, and analyzed with a flow cytometer. A negative control IgM antibody of the same concentration (10 μg/ml) was reacted in the same manner as herein. The 67LR expression amount on the cell surfaces was indicated by the center value of the fluorescent intensity of LR.
For the purpose of investigating the influence of EGCG treatment on the cell surface expression of 67LR, the cells were treated with an EGCG-added 1% FBS-PBS having a final EGCG concentration of 50 μM, and then kept at 37° C. for 30 minutes. This was washed once with PBS. Then, this was treated in the same manner as above with the primary antibody and others, and analyzed. As a control, the cells were treated with an EGCG-free 1% FBS-PBS.

[4] = target: T2, 67LR forced expression cells; assay: Binding competition test of EGCG and anti-67LR antibody (surface plasmon resonance sensor); conditions: cells pretreated with anti-67LR antibody 10 μg/ml, 37° C., 30 minutes
Method: as §2, with “These solutions were mixed, and the SA membrane-processed gold membrane was dipped into the mixture, and gently stirred at room temperature for 10 minutes. 10 ml of ultra-pure water was added, and further stirred at room temperature for 5 minutes. This was washed twice with ultra-pure water with no water pressure applied to the gold surface thereof, then dried (in air), and mounted on a cartridge. The cells were suspended to a density of 3×10^5 cells/ml (in a flow buffer, PBS), and 20 μl of the cell suspension was dropwise applied onto the gold membrane and kept at room temperature for 30 minutes so as to fix the cells onto the membrane.” left out, “cells. […]” for “cells.”

| Compound | number of the cells / growth inhibiting effect (influence of 67LR gene introduction) ([1]; 48 hours) | survival rate (influence of 67LR gene introduction) ([1]; 48 hours) | cell binding to A549 cells (A549 cells) | change of cell binding in 67LR forced expression cells [2] | further results |
| --- | --- | --- | --- | --- | --- |
| catechin | no influence | no influence | no binding | no change | – |
| O=C(O[C@@H]1Cc2c(O)cc(O)cc2O[C@@H]1c1ccc(O)c(O)c1)c1cc(O)c(O)c(O)c1 [ECG, epicatechin-3-O-gallate] | increase in the growth inhibiting effect | – | showed cell binding though not comparable to that of EGCG | cell binding increased | – |
| COc1cc(C(=O)O[C@@H]2Cc3c(O)cc(O)cc3O[C@@H]2c2cc(O)c(O)c(O)c2)cc(O)c1O [EGCG3″Me, epigallocatechin-3-(3-O-methyl)-gallate] | increase in the growth inhibiting effect | – | showed cell binding though not comparable to that of EGCG | cell binding increased | – |
| O=c1c(O)c(-c2ccc(O)c(O)c2)oc2cc(O)cc(O)c12 [quercetin] | no influence | no influence | did not show cell binding | no change | – |
| Cn1c(=O)c2c(ncn2C)n(C)c1=O [caffeine, Caffeine] | no influence | – | did not show cell binding | no change | – |
| epigallocatechin-3-O-gallate [EGCG] | increase in the growth inhibiting effect | – | – | – | survival rate ([3]; EGCG with or without antibody pretreatment, Tripanblue staining): no influence on the survival rate was found; growth inhibiting activity after antibody treatment ([3]; anti-67LR antibody treatment before EGCG): the growth inhibiting activity was lost; growth inhibiting activity ([1]; EGCG 0.1 μM, 67LR forced expression cells): showed its growth inhibiting activity; cell growth inhibition ([1]; EGCG of various concentrations, 67LR transiently expressed A549 cells, 5% FBS ERDF, 37° C., 48 hours): concentration-dependent cell growth inhibition was observed; cell growth inhibition versus 67LR gene amount introduced ([1]; pTARGET-hLamininR of varying concentrations, EGCG, 48 hours): in proportion to the 67LR gene amount introduced into the cells, cell growth inhibition was also observed; apparent 67LR expression detected by anti-67LR antibody after EGCG (67LR on cell surfaces; EGCG 50 μM before antibody, 67LR-introduced cells): it was the same; apparent 67LR expression detected by anti-67LR antibody after EGCG (67LR on cell surfaces; EGCG 50 μM before antibody, cells with empty vector): The same phenomenon was found; apparent 67LR expression detected by anti-67LR antibody after EGCG (67LR on cell surfaces; EGCG 50 μM, 37° C., 30 minutes before antibody, control A549 cells): apparently disappeared; angle change (binding amount) (A549 cells; EGCG 5 μM, A549 cells with empty vector): Only a little angle change; EGCG binding amount (angle change) [4]: reduction; EGCG binding speed [4]: reduction; angle change (binding amount) ([2]; cells with 0.25 μg of 67LR expression vector): a great increase in the angle; angle change (binding amount) ([2]; cells with 0.5 μg of 67LR expression vector): a further greater increase in the angle |
| Oc1cc(O)c2c(c1)O[C@H](c1cc(O)c(O)c(O)c1)[C@H](O)C2 [EGC, epigallocatechin] | no influence | no influence | no binding | no change | – |
